According to patent US9737493B2, “Compositions and methods for modulating DNMT1 inhibitor activity” (University of Louisville Research Foundation, Inc., priority 2012, dated 2017):

What was measured:
A549 cells = assay: DNA content (PI) cell cycle analysis; format: cell-based, human
Procedure: (§1) FIG. 6: DNA Content Analysis for Malignant Cells treated with XB05. (A) U937 and A549 cells were treated with XB05 at the concentrations indicated for 24, 48 and 72 h. At each time point, the cells were harvested and subjected to propidium iodide (PI) staining for DNA content analysis as described in Methods. (B) Tables showing percentage of cycling cells (non-SubG1) in various phases of the cell cycle after treatment with vehicle or XB05 as indicated in FIG. 6A.
(§2) Flow Cytometric Assays. Analyses were performed using a FACScalibur flow cytometer (BD Biosciences, Mountain View, Calif.) and FlowJo software (Tree Star, Inc., Ashland, Oreg.). Cells were treated as indicated in the figures and in the Brief Description of the Drawings. Cells were harvested by using TrypLE Cell Dissociation Reagent (Life Technologies). For cell death analyses, cells (adherent and detached cells) were stained with annexin-V-FITC and propidium iodide (PI) using the Apoptosis Detection Kit (BD Biosciences, San Jose, Calif.), according to the manufacturer's instructions. For cell-cycle distribution, cells were fixed, and stained with PI using the Cycle Test Plus kit (Becton Dickinson, Franklin Lakes, N.J.). […] Cells were then washed twice with PBS, re-suspended at a density of 1×10^6 cells/mL in PBS and analyzed by flow cytometry.

U937 cells = assay: DNA content (PI) cell cycle analysis; format: cell-based, human; details: U937, 24 h
Procedure: as §1, §2

## CCCCCC(O)C#CC(F)(F)Br (centres unmarked) [XB05]
A549 cells
  proportion of cells in G2/M phase: very modest increase in the G2/M fraction
U937 cells
  proportion of cells in G2/M phase: pronounced increase in the proportion of cells in G2/M phase
